What was measured:
Format in all cases: in vivo, Wistar male rats
H I/R-induced injury [1] = assay: Histopathological examination (H&E, Suzuki grading) of ischemic liver
Experimental: (§1) Wistar male rats (age: 6-8 weeks; weight: 200-230 g) were obtained from Experimental Animal Research Centre, King Saud University, Riyadh, K S A. The animals were acclimatized with standard laboratory food and water ad libitum in ventilated cages system (12 h light/dark cycles, 20.3-23.1° C.) then kept throughout the whole experiment under the same conditions.
(§2) Rats were anesthetized with isoflurane with oxygen (2%, 0.5 L/h) throughout the whole surgery, under heat control and aseptic conditions. Animals' abdomen was shaved and sterilized, and a surgical incision (about 3 cm) from the pubic to the sternum was executed. The portal triad, comprising the hepatic artery, portal vein, and common bile duct, was clamped using a micro-vascular clamp for 60 min to prompt ischemia. Hepatic reperfusion was accompanied by releasing the micro-vascular clamp and permitted reperfusion for six hours. The sham-operated animals were subjected to all the procedures that occurred during H I/R, deprived of blood flow blockage.
1-Deoxynojirimycin hydrochloride (1-DNJ) was purchased from Merck (Merck & Co., USA, product number D 9305). 1-DNJ was administered by gavage orally after being suspended in 1% carboxymethyl cellulose (CMC) solution. 1-DNJ dose (50 and 100 mg/kg) selection was based on previous studies. A total of 30 Wistar rats were haphazardly assigned into five groups (six rats/group). […]

H I/R-induced injury [2] = assay: Hepatic oxidative stress biomarkers in hepatic tissue homogenate after hepatic ischemia-reperfusion; settings: compared to H I/R animals
Experimental: as §1, §2
(§3) 1-Deoxynojirimycin hydrochloride (1-DNJ) was purchased from Merck (Merck & Co., USA, product number D 9305). 1-DNJ was administered by gavage orally after being suspended in 1% carboxymethyl cellulose (CMC) solution. 1-DNJ dose (50 and 100 mg/kg) selection was based on previous studies. A total of 30 Wistar rats were haphazardly assigned into five groups (six rats/group). The sham group in which animals were given vehicle (1% CMC) orally for two weeks and subjected to sham steps. 1-DNJ+Sham group in which rats were administered 1-DNJ (100 mg/kg/day) for two weeks and then subjected to sham steps. Third group, the H I/R group, in which rats were administered 1% CMC for two weeks and then hepatic ischemia for 60 min followed by 6 hours reperfusion was implemented. Finally, 1-DNJ 50+H I/R and 1-DNJ 100+H I/R groups in which rats were pretreated with 1-DNJ (50, 100 mg/kg/day) respectively orally for two weeks, then subjected to hepatic I/R surgical procedure.
(§4) Once the reperfusion period was completed, animals' blood was obtained through the hearts, centrifuged at 4000×g for 15 min at 4° C., and stored at −20° C. to be utilized in the biochemical estimation of liver function tests, including ALT, AST, ALP, and LDH. Moreover, hepatic tissues were isolated, washed in cool PBS, and distributed in three portions. The first part was homogenized with PBS, centrifuged at 10,000×g for 15 min at 4° C., and consumed to evaluate oxidative stress and ELISA biomarkers. The second portion was stored at −20° C. for subsequent qRT-PCR and western blot analysis. The third part was fixed with 10% formalin buffered saline to estimate the histopathological variations as well as the immunohistochemical manifestation.
(§5) One-way ANOVA followed by Tukey-Kramer as a post hoc test were executed for multiple comparisons between different experimental groups. p as a level of probability was set at 0.05, indicating the significance level. All statistical analyses were performed using Graph Pad software (version 8, CA, USA).
Oxidative stress-related biomarkers, including antioxidant and lipid peroxidation enzymes such as CAT, SOD, GST, GSH, MDA, and NO contents, were monitored in the hepatic tissue homogenate. Malondialdehyde (MDA; ab238537), glutathione (GSH, ab65322), glutathione-s-transferase (GST, ab65326), nitric oxide (NO, ab272517) assay kits were purchased from Abeam Inc. (Cambridge, UK). Superoxide dismutase (SOD; MBS036924) and catalase (MBS726781) ELISA kits were obtained from My BioSource (San Diego, CA, USA). All the procedures were executed in accordance with the manufacturer's directions.

H I/R-induced injury [3] = assay: Hepatic function biomarkers (serum ALT, AST, ALP, LDH) after hepatic ischemia-reperfusion; settings: compared to H I/R animals
Experimental: as §1, §2, §3, §4, §5
Rat Alanine Aminotransferase (ALT) ELISA kit (ab285264), Aspartate Aminotransferase (AST) ELISA kit (ab263883), and Alkaline Phosphatase (ALP) colorimetric assay kit (ab83369), Lactate Dehydrogenase (LDH) colorimetric assay kit (ab102526) were obtained from Abcam (Boston, MA, USA) and utilized following the manufacturer's instructions.

H I/R-induced injury [4] = assay: Apoptotic markers (caspase 3, caspase 9) ELISA after hepatic ischemia-reperfusion; settings: compared to H I/R animals
Experimental: as §1, §2, §3
Once the reperfusion period was completed, animals' blood was obtained through the hearts, centrifuged at 4000×g for 15 min at 4° C., and stored at −20° C. to be utilized in the biochemical estimation of liver function tests, including ALT, AST, ALP, and LDH. Moreover, hepatic tissues were isolated, washed in cool PBS, and distributed in three portions. […]
Inflammation markers including TNF-α (ab46070), […], IL-6 (ab100772) NFκB (ab133112) and IL-10 (ab214566), ELISA kits were obtained from Abcam Co., (Eugene, OR, USA). […] These markers were measured according to the manufacturer's instructions using a microplate reader SpectraMax i3X (Molecular devices San Jose, CA, USA).

[5] = 1-DNJ 50 mg/kg/day orally for 2 weeks before H I/R
[6] = 1-DNJ 100 mg/kg/day orally for 2 weeks before H I/R

SMILES: Cl.OC[C@H]1NC[C@H](O)[C@@H](O)[C@@H]1O [1-DNJ, 1-Deoxynojirimycin hydrochloride]
- histopathological changes by Suzuki scores (congestion, vacuolation, necrosis) (H I/R-induced injury [1]; 1-DNJ preconditioned animals (50 and 100 mg/kg/day orally, 2 weeks), related to H I/R animals): substantial reduction in hepatic congestion and hepatocellular vacuolation and necrosis
- histopathological findings (H&E sections) (H I/R-induced injury [1]; 1-DNJ pretreated groups (50 and 100 mg/kg/day orally, 2 weeks) before H I/R): re-established hepatic parenchyma, less hepatocellular necrosis, fewer congested hepatic sinusoids, and portal vasculatures with slight vacuolation
- percentage elevation in CAT (H I/R-induced injury [2]; [5]): 114.24%
- percentage elevation in GSH (H I/R-induced injury [2]; [5]): 130.82%
- percentage elevation in GST (H I/R-induced injury [2]; [5]): 49.42%
- percentage elevation in SOD (H I/R-induced injury [2]; [5]): 60.80%
- percentage reduction in MDA (H I/R-induced injury [2]; [5]): 24.18%
- percentage reduction in NO (H I/R-induced injury [2]; [5]): 40.77%
- percentage elevation in CAT (H I/R-induced injury [2]; [6]): 161.09%
- percentage elevation in GSH (H I/R-induced injury [2]; [6]): 194.64%
- percentage elevation in GST (H I/R-induced injury [2]; [6]): 99.02%
- percentage elevation in SOD (H I/R-induced injury [2]; [6]): 89.51%
- percentage reduction in MDA (H I/R-induced injury [2]; [6]): 30.71%
- percentage reduction in NO (H I/R-induced injury [2]; [6]): 55.05%
- percentage reduction in ALP (H I/R-induced injury [3]; [5]): 29.75%
- percentage reduction in ALT (H I/R-induced injury [3]; [5]): 22.26%
- percentage reduction in AST (H I/R-induced injury [3]; [5]): 26.96%
- percentage reduction in LDH (H I/R-induced injury [3]; [5]): 24.39%
- percentage reduction in ALP (H I/R-induced injury [3]; [6]): 44.53%
- percentage reduction in ALT (H I/R-induced injury [3]; [6]): 43.11%
- percentage reduction in AST (H I/R-induced injury [3]; [6]): 41.65%
- percentage reduction in LDH (H I/R-induced injury [3]; [6]): 48.63%
- percentage reduction in caspase 3 (H I/R-induced injury [4]; [5]): 27.62%
- percentage reduction in caspase 9 (H I/R-induced injury [4]; [5]): 20.09%
- percentage reduction in caspase 3 (H I/R-induced injury [4]; [6]): 41.23%
- percentage reduction in caspase 9 (H I/R-induced injury [4]; [6]): 24.86%
